This note sets out measurements from ChEMBL document CHEMBL3861942 (Medchemcomm, 2016).

Experiment [1] in a line: Cell cycle arrest in human A549 cells assessed as accumulation at sub G0 phase at 10 uM by propidium iodide staining-based flow cytometric analysis (reference value: 0.866 +/- 0.03%). It is filed as functional.
Experiment [2] is described as follows: Cell cycle arrest in human A549 cells assessed as accumulation at sub G0 phase at 100 uM by propidium iodide staining-based flow cytometric analysis (reference value: 0.866 +/- 0.03%). Type of experiment: functional. (In general: A flow cytometer gives signals particle by particle.)
Experiment [3] can be described thus: (§1) Cytotoxicity against human A549 cells assessed as decrease in cell viability after 24 hrs by MTT assay. It is filed as functional, cell-based. To be noted: A549, 24 h.
For experiment [4], the system named is A549. The description is as §1. It is filed as functional, cell-based.
Experiment [5] in a line: (§2) Cytotoxicity against human HeLa cells assessed as decrease in cell viability after 24 hrs by MTT assay. Type of experiment: functional, cell-based.
Experiment [6] has as its system HeLa. Described as §2. Type of experiment: functional, cell-based.
Experiment [7] relates to A549. Briefly: Induction of apoptosis in human A549 cells assessed as appearance of crescent or granular shape nucleus on one side of the cell at 10 to 100 uM after 24 hrs by acridine orange/ethidium bromide staining-based fluorescence microscopy. It is filed as functional.
A short description of experiment [8]: Cell cycle arrest in human A549 cells assessed as accumulation at S phase at 10 uM by propidium iodide staining-based flow cytometric analysis (reference value: 8.9 +/- 0.6%). It is filed as functional.
Experiment [9] concerns A549. Kind of experiment: Induction of apoptosis in human A549 cells assessed as appearance of concentrated and asymmetrically localized nucleus at 10 to 100 uM after 24 hrs by acridine orange/ethidium bromide staining-based fluorescence microscopy. Type of experiment: functional, cell-based.
The subject of experiment [10] is HeLa. Briefly: Induction of apoptosis in human HeLa cells assessed as appearance of concentrated and asymmetrically localized nucleus at 10 to 100 uM after 24 hrs by acridine orange/ethidium bromide staining-based fluorescence microscopy. It is filed as functional, cell-based.
A short description of experiment [11]: Cell cycle arrest in human A549 cells assessed as accumulation at G1 phase at 10 uM by propidium iodide staining-based flow cytometric analysis (reference value: 66.2 +/- 1.5%). It is filed as functional.
A short description of experiment [12]: Cell cycle arrest in human A549 cells assessed as accumulation at G2/M phase at 10 uM by propidium iodide staining-based flow cytometric analysis (reference value: 23.5 +/- 1%). Type of experiment: functional.
Experiment [13] in a line: Cell cycle arrest in human HeLa cells assessed as accumulation at sub G0 phase at 10 uM by propidium iodide staining-based flow cytometric analysis (reference value: 1.05 +/- 0.2%). Type of experiment: functional.
Experiment [14] in a line: Cell cycle arrest in human HeLa cells assessed as accumulation at G1 phase at 10 uM by propidium iodide staining-based flow cytometric analysis (reference value: 42 +/- 1.8%). It is filed as functional.
Experiment [15] is described as follows: Cell cycle arrest in human HeLa cells assessed as accumulation at S phase at 10 uM by propidium iodide staining-based flow cytometric analysis (reference value: 6.7 +/- 0.3%). It is filed as functional.
Experiment [16] can be described thus: Cell cycle arrest in human HeLa cells assessed as accumulation at G2/M phase at 10 uM by propidium iodide staining-based flow cytometric analysis (reference value: 47.1 +/- 1.2%). It is filed as functional.
Experiment [17] is described as follows: Cell cycle arrest in human A549 cells assessed as accumulation at G1 phase at 100 uM by propidium iodide staining-based flow cytometric analysis (reference value: 66.2 +/- 1.5%). It is filed as functional.
Experiment [18] is described as follows: Cell cycle arrest in human A549 cells assessed as accumulation at S phase at 100 uM by propidium iodide staining-based flow cytometric analysis (reference value: 8.9 +/- 0.6%). It is filed as functional.
Experiment [19] can be described thus: Cell cycle arrest in human A549 cells assessed as accumulation at G2/M phase at 100 uM by propidium iodide staining-based flow cytometric analysis (reference value: 23.5 +/- 1%). Type of experiment: functional.
Experiment [20] in a line: Cell cycle arrest in human HeLa cells assessed as accumulation at sub G0 phase at 100 uM by propidium iodide staining-based flow cytometric analysis (reference value: 1.05 +/- 0.2%). It is filed as functional.
Experiment [21] can be described thus: Cell cycle arrest in human HeLa cells assessed as accumulation at G1 phase at 100 uM by propidium iodide staining-based flow cytometric analysis (reference value: 42 +/- 1.8%). Type of experiment: functional.
The nature of experiment [22]: Cell cycle arrest in human HeLa cells assessed as accumulation at S phase at 100 uM by propidium iodide staining-based flow cytometric analysis (reference value: 6.7 +/- 0.3%). Type of experiment: functional.
The nature of experiment [23]: Cell cycle arrest in human HeLa cells assessed as accumulation at G2/M phase at 100 uM by propidium iodide staining-based flow cytometric analysis (reference value: 47.1 +/- 1.2%). It is filed as functional.

SMILES strings stand for the structures. Active and inactive are the calls of the source. No cut-off for these calls is given here.

In the case of `O=C(O)/C=C/c1ccccc1` [CINNAMIC ACID], the Activity is 0.54% in experiment [1]; 0.48% in experiment [2]; “Dose-dependent effect” in [4]; “Dose-dependent effect” in [6]; 8.3% in experiment [8]; 62.7% in experiment [11]. For the same molecule, the Activity in experiment [12] turned out to be 26.9%; in [13] it was 5.8%; in experiment [14], 55.6%; in [15], 28.6%; in experiment [16], 7.1%; in experiment [17] it was 65.6%. The Activity came out at 8.1% in experiment [18]; 24.8% in [19]; 14.4% in [20]; 73.3% in [21]; 14% in experiment [22]; 0.5% in experiment [23]. Also, the figures for the IC50 in experiment [3] and in experiment [5] were 50.2 µM and 24.8 µM, respectively. Also, the result in [7], in experiment [9] and in experiment [10] was Active.

Turning to `CC[C@H](/C=C/[C@@H](C)[C@H]1CC[C@H]2[C@@H]3CC=C4C[C@@H](O)CC[C@]4(C)[C@H]3CC[C@]12C)C(C)C` [STIGMASTEROL], the Activity in [1] was 0.85%; in experiment [2] it was 0.9%; in experiment [4], “Dose-dependent effect”; in [6], “Dose-dependent effect”; in [8], 9.6%; in experiment [11], 62.5%. For the same molecule, the Activity was found to be 26.5% in experiment [12]; 0.94% in experiment [13]; 39% in experiment [14]; 6.4% in experiment [15]; 48.7% in [16]; 64.9% in experiment [17]. Besides, the Activity in [18] worked out at 9.3%; in experiment [19], 24.1%; in experiment [20] it was 1.41%; in experiment [21] it was 38%; in experiment [22] it was 7.1%; in experiment [23], 48.9%. The IC50 (commonly the point on the concentration scale where inhibition reaches its midpoint) was 10.4 µM in [3] and 12.2 µM in experiment [5]. Further, the outcome in [7], in experiment [9] and in [10] was Active.

On to `CC[C@]1(O)C[C@H]2CN(CCc3c([nH]c4ccccc34)[C@@](C(=O)OC)(c3cc4c(cc3OC)N(C=O)[C@H]3[C@@](O)(C(=O)OC)[C@H](OC(C)=O)[C@]5(CC)C=CCN6CC[C@]43[C@@H]65)C2)C1` [VINCRISTINE], for which the IC50 in [3] turned out to be 0.8 µM; in experiment [5], 4.1 µM.
